Experimental data: paper PMC9653409, “Generative deep learning enables the discovery of a potent and selective RIPK1 inhibitor” (Nature Communications, 2022)
Read-outs that look alike come from different tables or passages of the source.

Key:
Assay in all cases: Kinase inhibitory activity profiling of RI-962@10 µM (406 kinases, Eurofins)
Assay type in all cases: biochemical
[1] = target: panel of human kinases (kinase named in endpoint) (Homo sapiens, UniProt O75582); details: 10 µM; read-out: Activity (%), MSK1(h)
Procedure, shortened: (§1)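 Radiometric filter-binding kinase assays: enzyme preincubated 15 min with compound in 8 mM MOPS pH 7.0, 0.2 mM EDTA, 250 μM peptide substrate, 10 mM magnesium acetate, 10 μM [γ-33P]-ATP. Reaction started with Mg/ATP, run 40 min at room temperature, stopped with phosphoric acid; 33P incorporation read by scintillation counting. Other kinases by similar protocols.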

[2] = target: panel of human kinases (kinase named in endpoint) (Homo sapiens, UniProt P07333); details: 10 µM; read-out: Activity (%), Fms(h)
Procedure, shortened: as §1

[3] = target: panel of human kinases (kinase named in endpoint) (Homo sapiens, UniProt P08069); details: 10 µM
Chain of panel of human kinases (kinase named in endpoint) (Homo sapiens, UniProt P08069) (P08069 31-1367): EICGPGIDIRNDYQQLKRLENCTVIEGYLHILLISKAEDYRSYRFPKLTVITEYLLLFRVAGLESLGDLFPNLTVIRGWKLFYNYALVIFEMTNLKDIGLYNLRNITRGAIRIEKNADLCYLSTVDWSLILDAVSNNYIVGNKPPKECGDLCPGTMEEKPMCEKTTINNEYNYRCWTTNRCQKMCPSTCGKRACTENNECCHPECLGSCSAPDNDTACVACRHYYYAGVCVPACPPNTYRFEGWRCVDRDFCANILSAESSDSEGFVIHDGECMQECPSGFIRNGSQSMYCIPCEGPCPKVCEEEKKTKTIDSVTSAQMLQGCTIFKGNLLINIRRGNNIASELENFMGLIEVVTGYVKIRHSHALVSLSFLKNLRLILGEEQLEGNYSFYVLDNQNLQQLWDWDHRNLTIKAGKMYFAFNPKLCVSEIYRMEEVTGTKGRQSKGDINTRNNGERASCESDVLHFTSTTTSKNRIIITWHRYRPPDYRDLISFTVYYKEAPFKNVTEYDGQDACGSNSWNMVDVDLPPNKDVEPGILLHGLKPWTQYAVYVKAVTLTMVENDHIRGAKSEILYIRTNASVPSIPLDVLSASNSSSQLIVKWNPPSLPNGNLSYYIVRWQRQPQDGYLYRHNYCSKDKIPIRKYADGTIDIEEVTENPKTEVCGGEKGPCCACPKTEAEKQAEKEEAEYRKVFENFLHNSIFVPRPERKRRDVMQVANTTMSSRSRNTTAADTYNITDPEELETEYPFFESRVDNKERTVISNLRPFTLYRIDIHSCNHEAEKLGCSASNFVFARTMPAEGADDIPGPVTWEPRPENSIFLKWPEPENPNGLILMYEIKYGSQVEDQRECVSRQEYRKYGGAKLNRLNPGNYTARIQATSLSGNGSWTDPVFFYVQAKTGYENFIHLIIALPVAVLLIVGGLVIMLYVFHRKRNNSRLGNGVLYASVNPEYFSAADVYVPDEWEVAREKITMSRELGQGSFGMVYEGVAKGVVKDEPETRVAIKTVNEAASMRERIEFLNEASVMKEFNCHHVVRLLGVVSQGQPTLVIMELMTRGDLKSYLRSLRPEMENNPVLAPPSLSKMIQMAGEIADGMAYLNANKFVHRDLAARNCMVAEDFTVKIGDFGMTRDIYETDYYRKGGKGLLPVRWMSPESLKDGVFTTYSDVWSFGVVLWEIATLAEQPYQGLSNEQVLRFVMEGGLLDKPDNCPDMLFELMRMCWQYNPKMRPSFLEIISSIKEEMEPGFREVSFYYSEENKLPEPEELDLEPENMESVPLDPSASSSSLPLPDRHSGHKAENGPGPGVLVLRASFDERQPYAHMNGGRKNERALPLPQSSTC
Procedure, shortened: as §1

[4] = target: panel of human kinases (kinase named in endpoint) (Homo sapiens, UniProt P10398); details: 10 µM; read-out: Activity (%), A-Raf(h)
Procedure, shortened: as §1

[5] = target: panel of human kinases (kinase named in endpoint) (Homo sapiens, UniProt P11802); details: 10 µM; read-out: Activity (%), CDK4/cyclinD3(h)
Procedure, shortened: as §1

[6] = target: panel of human kinases (kinase named in endpoint) (Homo sapiens, UniProt P24723); details: 10 µM; read-out: Activity (%), PKCη(h)
Procedure, shortened: as §1

[7] = target: panel of human kinases (kinase named in endpoint) (Homo sapiens, UniProt P34947); details: 10 µM; read-out: Activity (%), GRK5(h)
Procedure, shortened: as §1

[8] = target: panel of human kinases (kinase named in endpoint) (Homo sapiens, UniProt P36897); details: 10 µM; read-out: Activity (%), TGFBR1(h)
Procedure, shortened: as §1

[9] = target: panel of human kinases (kinase named in endpoint) (Homo sapiens, UniProt P48730); details: 10 µM; read-out: Activity (%), CK1δ(h)
Procedure, shortened: as §1

[10] = target: panel of human kinases (kinase named in endpoint) (Homo sapiens, UniProt P49137); details: 10 µM; read-out: Activity (%), MAPKAP-K2(h)
Chain of panel of human kinases (kinase named in endpoint) (Homo sapiens, UniProt P49137) (P49137 whole entry): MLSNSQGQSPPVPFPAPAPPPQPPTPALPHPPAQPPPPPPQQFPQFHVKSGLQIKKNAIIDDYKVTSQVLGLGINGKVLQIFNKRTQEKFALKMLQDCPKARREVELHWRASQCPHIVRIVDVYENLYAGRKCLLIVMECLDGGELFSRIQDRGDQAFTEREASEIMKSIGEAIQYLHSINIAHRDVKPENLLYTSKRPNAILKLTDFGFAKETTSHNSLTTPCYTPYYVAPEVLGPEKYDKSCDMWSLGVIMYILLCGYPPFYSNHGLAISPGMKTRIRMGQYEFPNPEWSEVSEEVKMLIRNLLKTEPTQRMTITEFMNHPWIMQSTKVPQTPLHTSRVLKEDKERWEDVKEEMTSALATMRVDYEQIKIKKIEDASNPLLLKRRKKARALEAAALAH
Procedure, shortened: as §1

[11] = target: panel of human kinases (kinase named in endpoint) (Homo sapiens, UniProt P51817); details: 10 µM; read-out: Activity (%), PrKX(h)
Procedure, shortened: as §1

[12] = target: panel of human kinases (kinase named in endpoint) (Homo sapiens, UniProt P53779); details: 10 µM; read-out: Activity (%), JNK3(h)
Chain of panel of human kinases (kinase named in endpoint) (Homo sapiens, UniProt P53779) (P53779 whole entry): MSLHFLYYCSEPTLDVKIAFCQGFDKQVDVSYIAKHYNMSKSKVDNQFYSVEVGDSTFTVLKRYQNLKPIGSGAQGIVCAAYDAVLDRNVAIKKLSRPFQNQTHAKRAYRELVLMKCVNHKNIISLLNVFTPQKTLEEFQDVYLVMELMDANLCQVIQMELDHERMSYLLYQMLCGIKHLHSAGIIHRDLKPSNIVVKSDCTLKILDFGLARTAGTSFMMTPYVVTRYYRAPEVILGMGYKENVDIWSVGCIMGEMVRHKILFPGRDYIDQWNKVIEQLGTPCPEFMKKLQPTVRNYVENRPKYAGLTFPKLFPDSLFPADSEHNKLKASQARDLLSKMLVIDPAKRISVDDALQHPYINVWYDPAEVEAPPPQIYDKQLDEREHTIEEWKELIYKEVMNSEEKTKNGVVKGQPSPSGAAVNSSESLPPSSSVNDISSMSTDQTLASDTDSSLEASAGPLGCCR
Procedure, shortened: as §1

[13] = target: panel of human kinases (kinase named in endpoint) (Homo sapiens, UniProt P54764); details: 10 µM; read-out: Activity (%), EphA4(h)
Chain of panel of human kinases (kinase named in endpoint) (Homo sapiens, UniProt P54764) (P54764 20-986): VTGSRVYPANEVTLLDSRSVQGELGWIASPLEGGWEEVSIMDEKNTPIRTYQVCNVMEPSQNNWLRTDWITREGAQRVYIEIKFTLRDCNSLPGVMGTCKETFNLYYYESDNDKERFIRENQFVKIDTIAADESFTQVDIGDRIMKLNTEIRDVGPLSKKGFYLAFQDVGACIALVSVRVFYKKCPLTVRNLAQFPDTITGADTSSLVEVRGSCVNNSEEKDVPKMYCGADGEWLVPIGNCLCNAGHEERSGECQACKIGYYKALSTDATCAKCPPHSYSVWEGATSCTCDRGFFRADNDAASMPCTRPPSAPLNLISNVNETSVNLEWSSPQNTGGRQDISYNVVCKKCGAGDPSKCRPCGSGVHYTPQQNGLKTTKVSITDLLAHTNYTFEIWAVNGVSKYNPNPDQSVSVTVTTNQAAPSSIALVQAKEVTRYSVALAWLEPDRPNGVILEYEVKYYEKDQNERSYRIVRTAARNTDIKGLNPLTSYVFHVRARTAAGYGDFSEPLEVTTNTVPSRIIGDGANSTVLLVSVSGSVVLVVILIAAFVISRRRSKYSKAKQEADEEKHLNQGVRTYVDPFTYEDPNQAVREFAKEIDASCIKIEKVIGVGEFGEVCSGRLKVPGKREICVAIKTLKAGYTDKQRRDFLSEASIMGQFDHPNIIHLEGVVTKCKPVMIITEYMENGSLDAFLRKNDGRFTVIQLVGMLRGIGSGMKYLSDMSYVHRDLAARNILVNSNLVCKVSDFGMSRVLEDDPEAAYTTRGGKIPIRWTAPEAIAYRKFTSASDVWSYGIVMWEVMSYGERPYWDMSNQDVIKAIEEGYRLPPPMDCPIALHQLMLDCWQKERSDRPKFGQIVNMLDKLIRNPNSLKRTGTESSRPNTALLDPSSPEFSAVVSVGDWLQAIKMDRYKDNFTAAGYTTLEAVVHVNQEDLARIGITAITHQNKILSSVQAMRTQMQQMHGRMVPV
Procedure, shortened: as §1

[14] = target: panel of human kinases (kinase named in endpoint) (Homo sapiens, UniProt Q08345); details: 10 µM; read-out: Activity (%), DDR1(h)
Procedure, shortened: as §1

[15] = target: panel of human kinases (kinase named in endpoint) (Homo sapiens, UniProt Q13315); details: 10 µM; read-out: Activity (%), ATM(h)
Procedure, shortened: as §1

[16] = target: panel of human kinases (kinase named in endpoint) (Homo sapiens, UniProt Q14012); details: 10 µM; read-out: Activity (%), CaMKI(h)
Procedure, shortened: as §1

[17] = target: panel of human kinases (kinase named in endpoint) (Homo sapiens, UniProt Q16654); details: 10 µM; read-out: Activity (%), PDHK4(h)
Procedure, shortened: as §1

[18] = target: panel of human kinases (kinase named in endpoint) (Homo sapiens, UniProt Q16832); details: 10 µM; read-out: Activity (%), DDR2(h)
Procedure, shortened: as §1

[19] = target: panel of human kinases (kinase named in endpoint) (Homo sapiens, UniProt Q5MAI5); details: 10 µM; read-out: Activity (%), CDKL4(h)
Chain of panel of human kinases (kinase named in endpoint) (Homo sapiens, UniProt Q5MAI5) (Q5MAI5 whole entry): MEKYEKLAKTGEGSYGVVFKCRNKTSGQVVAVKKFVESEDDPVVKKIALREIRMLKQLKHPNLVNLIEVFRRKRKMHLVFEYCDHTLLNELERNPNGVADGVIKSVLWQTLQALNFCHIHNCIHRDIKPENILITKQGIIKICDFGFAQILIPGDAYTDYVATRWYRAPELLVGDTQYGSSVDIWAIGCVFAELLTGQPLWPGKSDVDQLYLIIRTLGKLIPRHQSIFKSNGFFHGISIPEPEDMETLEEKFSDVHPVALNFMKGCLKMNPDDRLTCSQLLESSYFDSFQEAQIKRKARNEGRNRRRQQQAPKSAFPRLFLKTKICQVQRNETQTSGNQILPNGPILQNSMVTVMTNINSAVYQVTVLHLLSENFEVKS
Procedure, shortened: as §1

[20] = target: panel of human kinases (kinase named in endpoint) (Homo sapiens, UniProt Q86UX6); details: 10 µM; read-out: Activity (%), STK32C(h)
Chain of panel of human kinases (kinase named in endpoint) (Homo sapiens, UniProt Q86UX6) (Q86UX6 whole entry): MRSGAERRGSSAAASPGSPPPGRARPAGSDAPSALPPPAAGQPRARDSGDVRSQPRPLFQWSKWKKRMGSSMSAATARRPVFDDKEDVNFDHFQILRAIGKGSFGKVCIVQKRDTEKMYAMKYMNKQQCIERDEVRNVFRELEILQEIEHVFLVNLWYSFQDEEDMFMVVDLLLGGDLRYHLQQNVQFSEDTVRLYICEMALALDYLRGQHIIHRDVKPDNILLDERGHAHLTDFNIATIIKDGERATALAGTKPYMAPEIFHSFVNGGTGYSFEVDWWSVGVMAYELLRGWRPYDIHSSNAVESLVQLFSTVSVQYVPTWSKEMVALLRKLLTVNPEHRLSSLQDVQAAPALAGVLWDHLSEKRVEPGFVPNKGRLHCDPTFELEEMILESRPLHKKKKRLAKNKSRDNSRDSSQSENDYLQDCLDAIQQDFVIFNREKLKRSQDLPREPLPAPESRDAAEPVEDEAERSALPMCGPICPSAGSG
Procedure, shortened: as §1

[21] = target: panel of human kinases (kinase named in endpoint) (Homo sapiens, UniProt Q86V86); details: 10 µM; read-out: Activity (%), Pim-3(h)
Procedure, shortened: as §1

[22] = target: panel of human kinases (kinase named in endpoint) (Homo sapiens, UniProt Q86Z02); details: 10 µM; read-out: Activity (%), HIPK1(h)
Procedure, shortened: as §1

[23] = target: panel of human kinases (kinase named in endpoint) (Homo sapiens, UniProt Q96PF2); details: 10 µM; read-out: Activity (%), TSSK2(h)
Procedure, shortened: as §1

[24] = target: panel of human kinases (kinase named in endpoint) (Homo sapiens, UniProt Q99759); details: 10 µM; read-out: Activity (%), MEKK3(h)
Procedure, shortened: as §1

[25] = target: panel of human kinases (kinase named in endpoint) (Homo sapiens, UniProt Q9UPZ9); details: 10 µM; read-out: Activity (%), ICK(h)
Procedure, shortened: as §1

[26] = target: panel of human kinases (kinase named in endpoint) (Homo sapiens, UniProt Q9Y4K4); details: 10 µM; read-out: Activity (%), MAP4K5(h)
Chain of panel of human kinases (kinase named in endpoint) (Homo sapiens, UniProt Q9Y4K4) (Q9Y4K4 whole entry): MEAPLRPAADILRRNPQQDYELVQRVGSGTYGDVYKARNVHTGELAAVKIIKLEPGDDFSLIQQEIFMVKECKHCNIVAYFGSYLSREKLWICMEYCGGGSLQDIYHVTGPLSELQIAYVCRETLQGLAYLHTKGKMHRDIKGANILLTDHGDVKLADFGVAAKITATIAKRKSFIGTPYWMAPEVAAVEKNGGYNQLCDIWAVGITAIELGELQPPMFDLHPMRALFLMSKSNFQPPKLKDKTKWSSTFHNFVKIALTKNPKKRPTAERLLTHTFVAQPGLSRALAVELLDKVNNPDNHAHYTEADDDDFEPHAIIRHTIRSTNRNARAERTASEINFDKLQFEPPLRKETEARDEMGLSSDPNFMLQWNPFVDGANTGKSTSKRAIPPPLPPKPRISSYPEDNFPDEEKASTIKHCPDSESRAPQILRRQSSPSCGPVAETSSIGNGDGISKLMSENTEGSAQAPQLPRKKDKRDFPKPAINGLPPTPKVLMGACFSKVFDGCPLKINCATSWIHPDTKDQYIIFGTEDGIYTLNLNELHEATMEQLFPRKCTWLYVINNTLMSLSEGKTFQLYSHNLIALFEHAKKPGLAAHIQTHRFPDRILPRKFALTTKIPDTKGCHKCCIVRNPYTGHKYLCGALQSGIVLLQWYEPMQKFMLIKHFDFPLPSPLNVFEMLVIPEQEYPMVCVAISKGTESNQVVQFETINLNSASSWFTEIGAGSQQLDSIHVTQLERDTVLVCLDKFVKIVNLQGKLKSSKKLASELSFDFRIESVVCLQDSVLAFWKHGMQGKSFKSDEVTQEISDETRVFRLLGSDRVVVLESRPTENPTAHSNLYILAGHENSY
Procedure, shortened: as §1

CC(C)C(=O)Nc1nc2cc(-c3ccc4c(c3)c(C(=O)NC(C)c3ccccc3)cn4C)ccn2n1 (stereo not drawn) [RI-962]
activity at 10 µM [1]: 112% | activity at 10 µM [2]: 111% | activity at 10 µM ([3]; read-out: Activity (%), IGF-1R(h)): 94% | activity at 10 µM ([3]; read-out: Activity (%), IGF-1R(h), activated): 92% | activity at 10 µM [4]: 80% | activity at 10 µM [5]: 75% | activity at 10 µM [6]: 99% | activity at 10 µM [7]: 80% | activity at 10 µM [8]: 98% | activity at 10 µM [9]: 108% | activity at 10 µM [10]: 97% | activity at 10 µM [11]: 126% | activity at 10 µM [12]: 56% | activity at 10 µM [13]: 77% | activity at 10 µM [14]: 104% | activity at 10 µM [15]: 85% | activity at 10 µM [16]: 92% | activity at 10 µM [17]: 75% | activity at 10 µM [18]: 126% | activity at 10 µM [19]: 70% | activity at 10 µM [20]: 76% | activity at 10 µM [21]: 111% | activity at 10 µM [22]: 103% | activity at 10 µM [23]: 76% | activity at 10 µM [24]: 93% | activity at 10 µM [25]: 102% | activity at 10 µM [26]: 100%
